According to the supplement of paper PMC10307832:

How the values were obtained:
Experiment in all cases: relative viability (nuclei count vs DMSO), 5 days (fraction); higher = more cells survive
[1] = compound: C1CC1C(=O)NC2=NNC3=C2C=CC(=C3)C4=CC(=CC=C4)C(=O)NC5CC5 [XMD13-2] + CC(=O)c1c(C)c2cnc(Nc3ccc(N4CCNCC4)cn3)nc2n(C2CCCC2)c1=O [Palbociclib] (partner 0.5 µM)
Outline: (§1)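 Dosing by pin tool came one day after lung cancer cell lines were seeded in 1536-well plates, using either one drug or a fixed anchor-drug dose plus five library-drug doses (not always all listed) in √10 steps. After 5 days, nuclei were counted on 4× images. Relative viability is treated-well nuclei count divided by vehicle-well nuclei count, and values are medians of duplicate plates.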

[2] = compound: Cc1ccc(C(=O)Nc2cccc(C(F)(F)F)c2)cc1Nc1cncc(C(N)=O)c1 [ALW-II-49-7] + C[C@@H](Oc1cc(-c2cnn(C3CCNCC3)c2)cnc1N)c1c(Cl)ccc(F)c1Cl [Crizotinib] (partner 1 µM)
Outline: as §1

[3] = compound: Cc1ccc(C(=O)Nc2cccc(C(F)(F)F)c2)cc1Nc1cncc(C(N)=O)c1 [ALW-II-49-7] + CS(=O)(=O)N1CCN(Cc2cc3nc(-c4cccc5[nH]ncc45)nc(N4CCOCC4)c3s2)CC1 [Pictilisib] (partner 1 µM)
Outline: as §1

[4] = compound: Cc1nc(Nc2ncc(C(=O)Nc3c(C)cccc3Cl)s2)cc(N2CCN(CCO)CC2)n1 [Dasatinib] + CC(=O)Nc1cccc(-n2c(=O)n(C3CC3)c(=O)c3c(Nc4ccc(I)cc4F)n(C)c(=O)c(C)c32)c1 [Trametinib] (partner 0.02 µM)
Outline: as §1

| Cell Line | relative viability ([1]; first compound 0.05 µM) | relative viability ([1]; first compound 0.1581 µM) | relative viability ([1]; first compound 0.5 µM) | relative viability ([1]; first compound 1.581 µM) | relative viability ([1]; first compound 5 µM) | relative viability ([2]; first compound 0.08 µM) | relative viability ([2]; first compound 0.253 µM) | relative viability ([2]; first compound 0.8 µM) | relative viability ([2]; first compound 2.53 µM) | relative viability ([2]; first compound 8 µM) | relative viability ([3]; first compound 0.08 µM) | relative viability ([3]; first compound 0.253 µM) | relative viability ([3]; first compound 0.8 µM) | relative viability ([3]; first compound 2.53 µM) | relative viability ([3]; first compound 8 µM) | relative viability ([4]; first compound 0.005 µM) | relative viability ([4]; first compound 0.01581 µM) | relative viability ([4]; first compound 0.05 µM) | relative viability ([4]; first compound 0.1581 µM) | relative viability ([4]; first compound 0.5 µM) |
| --- | --- | --- | --- | --- | --- | --- | --- | --- | --- | --- | --- | --- | --- | --- | --- | --- | --- | --- | --- | --- |
| HCC-78 | 0.45 | 0.459 | 0.448 | 0.438 | 0.483 | 0.335 | 0.321 | 0.32 | 0.297 | 0.371 | 0.192 | 0.188 | 0.203 | 0.268 | 0.192 | 0.676 | 0.679 | 0.643 | 0.444 | 0.354 |
| HCC-366 | 0.466 | 0.362 | 0.473 | 0.407 | 0.403 | 0.777 | 0.592 | 0.382 | 0.682 | 0.609 | 0.13 | 0.142 | 0.148 | 0.0944 | 0.217 | 0.283 | 0.182 | 0.218 | 0.16 | 0.117 |
| HCC-827 | 0.512 | 0.462 | 0.439 | 0.459 | 0.377 | 0.898 | 0.913 | 0.886 | 0.941 | 0.906 | 0.988 | 1.03 | 0.887 | 0.815 | 1.03 | 0.545 | 0.486 | 0.492 | 0.157 | 0.132 |
| HOP-62 | 0.464 | 0.485 | 0.448 | 0.413 | 0.348 | 0.855 | 1.05 | 1.02 | 0.563 | 0.817 | 0.68 | 0.97 | 0.857 | 0.621 | 0.491 | 0.344 | 0.333 | 0.32 | 0.211 | 0.162 |
| IA-LM |  |  |  |  |  | 0.825 | 0.754 | 0.745 | 0.346 | 0.18 | 0.334 | 0.281 | 0.388 | 0.209 | 0.288 |  |  |  |  |  |
| LC-2-ad | 0.504 | 0.477 | 0.538 | 0.486 | 0.47 | 0.354 | 0.461 | 0.476 | 0.378 | 0.393 | 0.427 | 1.04 | 0.31 | 0.542 | 0.555 | 0.914 | 0.906 | 0.909 | 0.735 | 0.457 |
| LCLC-97TM1 | 0.217 | 0.284 | 0.229 | 0.219 | 0.182 | 0.609 | 0.262 | 0.532 | 0.313 | 0.297 | 0.213 | 0.119 | 0.269 | 0.159 | 0.195 | 0.221 | 0.14 | 0.174 | 0.0952 | 0.0916 |
| LCLC-103H | 0.485 | 0.44 | 0.466 | 0.477 | 0.481 | 1.04 | 1.06 | 1.07 | 1.02 | 1.18 | 0.544 | 0.859 | 0.692 | 0.67 | 0.546 | 0.687 | 0.598 | 0.574 | 0.535 | 0.516 |
| LK-2 | 0.666 | 0.557 | 0.698 | 0.776 | 0.593 | 0.216 | 0.211 | 0.215 | 0.262 | 0.226 | 0.559 | 0.648 | 0.508 | 0.361 | 0.513 | 0.765 | 0.399 | 0.414 | 0.263 | 0.246 |
| LOU-NH91 | 0.541 | 0.554 | 0.561 | 0.475 | 0.507 | 0.744 | 0.767 | 0.728 | 0.466 | 0.703 | 0.482 | 0.599 | 0.514 | 0.428 | 0.533 | 0.79 | 0.752 | 0.698 | 0.562 | 0.393 |
| NCI-H522 | 0.931 | 0.873 | 1.22 | 0.875 | 0.885 |  |  |  |  |  |  |  |  |  |  | 0.767 | 0.63 | 0.668 | 0.591 | 0.599 |
| NCI-H596 |  |  |  |  |  | 0.892 | 0.911 | 0.978 | 0.997 | 1.07 | 0.423 | 0.418 | 0.416 | 0.369 | 0.397 | 0.7 | 0.578 | 0.56 | 0.431 | 0.323 |
| NCI-H1299 |  |  |  |  |  | 0.972 | 0.954 | 0.963 | 0.861 | 0.736 | 0.623 | 0.78 | 0.609 | 0.436 | 0.311 |  |  |  |  |  |
| NCI-H1395 | 0.757 | 0.634 | 0.631 | 0.656 | 0.715 |  |  |  |  |  | 0.646 | 1.05 | 0.653 | 0.581 | 0.62 | 1.12 | 0.968 | 1.03 | 0.605 | 0.327 |
| NCI-H1563 |  |  |  |  |  | 0.927 | 0.842 | 0.858 | 0.774 | 0.867 | 0.573 | 0.661 | 0.643 | 0.595 | 0.657 |  |  |  |  |  |
| NCI-H1648 | 0.309 |  | 0.273 | 0.275 | 0.235 |  |  |  |  |  |  |  |  |  |  | 0.437 | 0.352 | 0.44 | 0.235 | 0.175 |
| NCI-H1703 |  |  |  |  |  | 0.859 | 0.713 | 0.554 | 0.309 | 0.211 | 0.239 | 0.241 | 0.212 | 0.203 | 0.205 |  |  |  |  |  |
| NCI-H1793 | 0.357 | 0.34 | 0.327 | 0.324 | 0.273 |  |  |  |  |  | 0.371 | 0.333 | 0.293 | 0.396 | 0.286 | 0.4 | 0.353 | 0.317 | 0.357 | 0.322 |
| NCI-H2342 | 0.517 | 0.522 | 0.546 | 0.488 | 0.502 |  |  |  |  |  |  |  |  |  |  | 0.662 | 0.722 | 0.774 | 0.515 | 0.294 |
| SW 900 | 0.592 | 0.382 | 0.669 | 0.549 | 0.589 |  |  |  |  |  |  |  |  |  |  | 0.783 | 0.474 | 0.405 | 0.393 | 0.188 |
